Laboratory results published in patent US4575504A, “Thienothiazole derivatives” (Dr. Karl Thomae GmbH, priority 1982, dated 1986).
Where a name gives a salt, the structure may show the parent alone.

Assays:
intact anesthetized rat [1] = assay: Effect on blood pressure and heart rate in the intact anesthetized rat after intravenous injection; format: in vivo; conditions: 3 mg/kg i.v.
Experimental: 1. Effect on blood pressure and heart rate Method: Changes in circulation after intravenous injection of the test substance were recorded in the intact anesthetized rat. Male rats weighing 200 g were anesthetized with pentobarbital (50 mg/kg i.p.). The animals breathed spontaneously through a tracheal cannula secured in position. The blood pressure was measured at an A. carotis using an electromechanical pressure transducer; the pulse wave triggered a tachograph which recorded the heart rate continuously. Both parameters were recorded on the polygraph. The test substance was injected into a V. jugularis through a catheter. The test substances, when administered at a dosage of 3 mg/kg i.v., produced a brief initial increase in blood pressure followed by a longer-lasting reduction in pressure.

[2] = system: postsynaptic α-adrenoceptors; assay: Effect on postsynaptic α-adrenoceptors: increase in blood pressure in the spinal rat; format: in vivo; conditions: dosage which increased arterial blood pressure by 30 mmHg, i.v.
Experimental: 3. Effect on postsynaptic α-adrenoceptors: Increase in blood pressure in the spinal rat Method: The increase in blood pressure occurring after the stimulation of postsynaptic α-adrenoreceptors is measured in the spinal rat. Description of test: Male rats weighing from 200 to 250 g were anesthetized (1.2 g/kg of urethane i.p., 1 mg/kg of atropine s.c.). Then the central canal of the spinal cord was opened up. The spinal cord was severed at C1, and the medulla oblongata and the brain were destroyed with a metal probe. The animals were artificially ventilated; a polyethylene catheter was secured in a jugular vein, and the blood pressure was recorded from an A. carotis by means of a Statham element on a Grass polygraph. The dosage (D30) which increased the arterial blood pressure by 30 mmHg was determined.

[3] = Acute toxicity in mice after oral or intravenous administration; conditions: mouse, in vivo, observation period 14 days
Experimental: The acute toxicity was determined in mice after oral or intravenous administration (observation period: 14 days): […]

[4] = system: presynaptic α-adrenoceptors; assay: Effect on presynaptic α-adrenoceptors: inhibition of electrically triggered tachycardia in the spinal rat; format: in vivo; conditions: dosage which inhibits electrically induced tachycardia by 50%, i.v.
Description: 2. Effect on presynaptic α-adrenoceptors: Inhibition of electrically triggered tachycardia Method: At the adrenergic nerve ending there is an autoregulating system for the relase of noradrenaline. The stimulation of presynaptic α-adrenoreceptors has an inhibiting effect on the release of noradrenaline and thus restricts adrenergic neurotransmission. Accordingly, if these "feedback receptors" are stimulated, the effect of a given adrenergic stimulation on the responding organ can be attenuated. In the electrically stimulated spinal rat, the tachycardia induced electrically in the heart is attenuated by substances with a presynaptic α-mimetic activity. Description of the test: Male rats weighing from 350 to 400 g were anesthetized with pentobarbital (50 mg/kg i.p.), vagotomized, treated with atropine (1 mg/kg s.c.) and fitted with a tracheal cannula. After enucleation of one eye, the orbits were pierced, the brain was destroyed, and a metal rod was pushed through the vertebral canal. The animals were artificially ventilated and pre-treated with gallamine (4 mg/kg i.v.). The metal rod used was 2.5 mm in diameter and was insulated (stove-enamelled). […] The blood pressure was measured at an A. carotis by means of an electromechanical pressure transducer. The pulse wave triggered a tachograph which continuously recorded the heart rate. Both signals were recorded on a multi-channel recorder.

intact anesthetized rat [5] = assay: Effect on blood pressure and heart rate in the intact anesthetized rat after intravenous injection; format: in vivo; conditions: 1.5 mg/kg i.v.

| SMILES | Blood pressure, depressor phase (maximum value) (intact anesthetized rat [1]) [mm Hg] | Blood pressure, pressor phase (maximum value) (intact anesthetized rat [1]) | Lowering of heart rate (maximum value) (intact anesthetized rat [1]) [beats/minute] | Blood pressure-increasing activity, D30 [2] | LD50 at 336 h ([3]; intravenous) [mg/kg] | LD50 at 336 h ([3]; oral) [mg/kg] | Inhibition of electrically induced tachycardia, D50 [4] [μg/kg i.v.] | Blood pressure, depressor phase (maximum value) (intact anesthetized rat [5]) [mm Hg] | Blood pressure, pressor phase (maximum value) (intact anesthetized rat [5]) | Lowering of heart rate (maximum value) (intact anesthetized rat [5]) [beats/minute] |
| --- | --- | --- | --- | --- | --- | --- | --- | --- | --- | --- |
| CCN1CCc2sc3nc(N)sc3c2CC1.Cl.Cl [A, 7-ethyl-2-amino-6,7,8,9-tetrahydro-5H-thiazolo[4',5':5,4]thieno[2,3-d]azepine dihydrochloride] | -18 | +52 mm Hg | -90 | 145 μg/kg i.v. | 34 | 320 | 290 | – | – | – |
| Nc1nc2sc3c(c2s1)CCN(Cc1ccccc1)CC3 [B, 2-amino-7-benzyl-6,7,8,9-tetrahydro-5H-thiazolo[4',5':5,4]thieno[2,3d]azepine] | -25 | – | -95 | – | – | – | – | – | – | – |
| C=CCN1CCc2sc3nc(N)sc3c2CC1.Cl.Cl [C, 7-allyl-2-amino-6,7,8,9-tetrahydro-5H-thiazolo[4',5':5,4]thieno[2,3-d]azepine dihydrochloride] | -15 | +17 mm Hg | -150 | – | – | – | – | – | – | – |
| CC(C)N1CCc2sc3nc(N)sc3c2CC1.Cl.Cl [Compound D, 2-amino-6,7,8,9-tetrahydro-7-isopropyl-5H-thiazolo[4',5':5,4]thieno[2,3-d]azepine dihydrochloride] | -20 | +23 mm Hg | -78 | – | – | – | – | – | – | – |
| CCN1CCc2c(sc3nc(N)sc23)C1 [E, 6-ethyl-2-amino-5,6,7,8-tetrahydro-thiazolo[4',5':5,4]thieno[2,3c]pyridine dihydrochloride] | -29 | +30 mm Hg | -108 | – | – | – | – | – | – | – |
| CCCN1CCc2c(sc3nc(N)sc23)C1.Cl.Cl [F, 2-amino-5,6,7,8-tetrahydro-6-propyl-thiazolo[4',5':5,4]thieno[2,3-c]pyridine dihydrochloride] | -12 | +16 mm Hg | -65 | – | – | > 300 | – | – | – | – |
| CN1CCc2c(sc3nc(N)sc23)C1.Cl.Cl [G, 2-amino-5,6,7,8-tetrahydro-6-methyl-thiazolo[4',5':5,4]thieno[2,3-c]pyridine dihydrochloride] | -30 | +46 mm Hg | -95 | – | – | – | – | – | – | – |
| Cl.Cl.Nc1nc2sc3c(c2s1)CCNCC3 [H, 2-Amino-6,7,8,9-tetrahydro-5H-thiazolo[4',5':5,4]thieno[2,3-d]azepine dihydrochloride] | – | – | – | 0.36 mg/kg i.v. | – | – | – | -34 | +38 mm Hg | -100 |
